This is an account of results in patent publication US20230416247A1, “DRUG-LIKE MOLECULES AND METHODS FOR THE THERAPEUTIC TARGETING OF MICRORNA-21” (University of Washington, priority 2020, published 2023).

Assay [1] deals with mature miR-21 and pre-miR-21 in AGS cells. As to the kind of experiment: qRT-PCR of mature miR-21 and pre-miR-21 in AGS cells. The class given is cell-based, human. The note with it: 10 nmoles, 48 hours, relative to DMSO control. The protocol:
(§1) FIGS. 13A-13D compare levels of mature miR-21 and pre-mi-21 measured in gastric adenocarcinoma (AGS) (FIGS. 13A and 13B, respectively) and pancreatic cancer cell line (ASPC 1) (FIGS. 13C and 13D, respectively), normalized to internal controls (U6 or U8 snRNA), in the presence of 10 nmoles of palbociclib (used here as a negative control, not expected to affect microRNA levels) and compounds −0045 and −0052, 48 hours after incubation, relative to DMSO control, and measured by standard qRT-PCR. Statistically significant changes are labeled with asterisks.
(§2) Levels of mature miR-21 and its precursor pre-miR-21 were measured in gastric carcinoma (ASG) and pancreatic (ASPC1) cancer cell lines under conditions where we observed a decrease in proliferation (FIGS. 13A-13D), using the same blind format described above.
(§3) Cell line maintenance. Using the Cancer Cell Line Encyclopedia (CCLE), in-house cancer cell lines were screened to identify cancer and tissue types with varying levels of miR-21 expression. Experiments were performed using the human-derived cell lines AGS (gastric cancer) and AsPC-1 (pancreatic cancer). Cell lines were obtained from the American Type Culture Collection and maintained per instructions from the supplier. AGS were cultured in F12K medium supplemented with 10% FBS. AsPC-1 were cultured in RPMI, with 10% FBS added. All cells were kept at 37° C. in a humidified atmosphere of 5% CO2 and underwent regular mycoplasma testing. All experiments were conducted when cells were 70-80% confluent.
(§4) Quantitative real time PCR analysis. RNA was isolated utilizing Trizol (Invitrogen) and the Direct-zol RNA Miniprep kit (Zymo Research). RNA concentration was assessed with the NanoDrop ND-1000 spectrophotometer (ThermoFisher Scientific). All microRNAs expression was tested in the two representative cell lines using qRT-PCR. Cells were seeded in 6-well plates 24 hours before treatment, at a cell confluency of 50-60%. Each cell line was treated with 10 μM compound or with only the dimethyl sulfoxide (DMSO) solvent. RNA was collected after the 48-hour time point. Expression of miR-21 was assessed utilizing the TaqMan microRNA assay (Applied Biosystems). The complementary DNA (cDNA) was synthesized using the TaqMan Reverse Transcription Reagents kit (Applied Biosystems) and was used with the TaqMan probes and Supermix (BioRad) for qRT-PCR analysis. U6 or U48 were used as internal controls for RNA levels. All experiments were performed in triplicate, with all samples normalized to the internal controls and relative expression levels calculated using the 2^ΔΔCt method.
(Quantitative PCR measures a nucleic acid by following its amplification.)

Assay [2] addresses pre-miR21. As to the kind of experiment: 1D 1H NMR ligand-detect titration of compounds with pre-miR21 RNA. The class given is binding, human. The protocol:
FIG. 6 compares the binding of representative compounds of the invention (see FIG. 5) to pre-miR21. 1D ^1H NMR ligand-detect titrations of compounds, generated by titrating in increasing concentrations of RNA into a solution containing 100 μM of the relevant compound in buffer containing 50 mM deuterated Tris at pH 6.5, as well as 250 mM NaCl, 50 mM KCl and 2 mM MgCl2. As increasing amounts of compounds are bound to the RNA in the course of the titration, the line width of the NMR signal increases, and the NMR peak height decreases. The fraction of compound bound can be calculated from the decrease in […] relative to an internal standard. Saturation of the curves to a value of 1 indicates the predominant presence of a single site with high binding affinity. Approximate binding constants can be calculated by fitting the data points to a binding isotherm. For reference, the data fit for compound −0052 corresponds to a Kd=200 nM, while compound −0045 corresponds to a Kd=600 nM.
The compounds show a strong pre-miR21 binding capacity.
(§5) RNA Transcription. All RNAs for ligand screening and structural or biochemical work were prepared in house using in vitro transcription on a large scale (typically 10 mL). RNA transcription and purification protocols used purified DNA oligonucleotide templates (IDT) and T7 RNA polymerase. Briefly, 1 mL of 8 μM TOP DNA (5′-CTATAGTGAGTCGTATTA-3′ (SEQ ID NO: 1)), corresponding to the phage T7 RNA polymerase promoter region, was annealed to 80 μL of 100 μM template sequences with 13 mM MgCl2, heated to 95° C. for […] then allowed to anneal to room temperature over 20 min. The annealing mixture was incubated with 5 mM of each of the four NTPs (ATP, GTP, UTP and CTP, from Sigma), transcription buffer, 8% PEG-8000 and 35 mM magnesium chloride with 0.4 mg/mL T7 RNA polymerase expressed and purified using established methods. All RNA samples are purified from crude transcriptions by 20% denaturing polyacrylamide gel electrophoresis (PAGE), electroeluted and concentrated by ethanol precipitation. The samples are re-dissolved in 12 mL of high salt wash (700 mM NaCl, 200 mM KCl, in 10 mM potassium phosphate at pH 6.5, with 10 μM EDTA to chelate any divalent ions), concentrated using Centriprep conical concentrators ([…] MWC, Millipore). The RNA was then slowly exchanged into low salt storage buffer (10 mM potassium phosphate at pH 6.5, with 10 mM NaCl and 10 μM EDTA). Prior to NMR experiments, all RNA samples were finally desalted using NAP-10 gravity columns, lyophilized and re-dissolved in ‘screening buffer’ or ‘structure buffer’ (see below), then annealed by heating for 4 min to 90° C. and snap cooling at −20° C.

Assay [3] concerns pre-miR-21. The assay is described as follows: 1D 1H imino NMR / NOESY titration of pre-miR-21 with compound. Type of assay: binding, human. Particulars: for closing of the apical loop of pre-miR-21 (new imino signals / base pairs): 1 mM pre-miR-21 titrated to 1.5 mM compound, 800 MHz, 5° C., 50 mM deuterated Tris pH 6.5, 50 mM NaCl; for binding to pre-miR-21 (NMR data): FIGS. 7A-7D. The protocol:
All data were collected at 800 Mhz and at 5° C. in buffer containing 50 mM deuterated Tris at pH 6.5 and 50 mM NaCl.
Remarkably, the compounds have the unique capacity to ‘close the loop’ of pre-miR-21. This large change in RNA structure is shown in FIGS. 7A-7D, compared to the unbound RNA which are shown at the bottom of FIGS. 7A and 7C. […] The effect is very similar to what is observed with mutations that stabilize the loop structure by inducing stable formations of base pairs in place of unstable base pairs, and that also reduce miR-21 expression in both biochemical experiments and in cells, as reported in the literature. Accordingly, the compounds of formula (I) are specific pre-miR-21 binding compounds with the capacity to inhibit enzymatic processing of this oncogenic miRNA sequence.
as §5

Assay [4] concerns mature miR-21 and pre-miR-21 in ASPC1 cells. As to the kind of experiment: qRT-PCR of mature miR-21 and pre-miR-21 in ASPC1 cells. Type of assay: cell-based, human. The note with it: ASPC1, 10 nmoles, 48 hours, relative to DMSO control. The protocol:
as §1, §2, §3, §4

Setting [5] is: 100 μM compound, 50 mM deuterated Tris pH 6.5, 250 mM NaCl, 50 mM KCl, 2 mM MgCl2, approximate, read-out: Kd (fit of NMR titration data to binding isotherm).
[6] abbreviates: estimated, FIG. 6, read-out: KD for pre-miR21.

“Also recorded” adds a separate entry of the source. Read-outs that look alike come from different tables or passages of the source.

Take `O=c1[nH]c(Nc2ccc(N3CCNCC3)cn2)nc2cccnc12` [Compound 25]: in assay [1], the “decrease in mature miR-21 levels” value was 40% and the pre-miR-21 levels result was “reduction in pre-miR-21 levels”. In assay [2] (setting [5]), the Kd was 0.6 µM. Besides, the Kd in assay [2] (setting [6]) is 0.6 µM. For the same compound, in assay [3], the “closing of the apical loop of pre-miR-21 (new imino signals / base pairs)” value is on record as “formation of the putative tandem UG/GU wobble pair in the apical loop; also recorded: emergence of new imino NH chemical shift resonances for the apical loop portion” and the “binding to pre-miR-21 (NMR data)” value is given as “bind to pre-miR-21 strongly”. Further, in assay [4], the “decrease in mature miR-21 levels” value came out at 40% and the pre-miR-21 levels entry is given as “reduction in pre-miR-21 levels”.

As to `O=c1[nH]c(Nc2ccc(N3CCNCC3)cn2)nc2cnccc12` [Compound 30], in assay [1], the “decrease in mature miR-21 levels” value is on record as 40% and the pre-miR-21 levels entry is on record as “reduction in pre-miR-21 levels”. Moreover, in assay [2] (setting [5]), the Kd is 0.2 µM. Moreover, the Kd in assay [2] (setting [6]) is 0.2 µM. Besides, in assay [3], the “closing of the apical loop of pre-miR-21 (new imino signals / base pairs)” value is recorded as “emergence of new imino NH chemical shift resonances for the apical loop portion” and the “binding to pre-miR-21 (NMR data)” value was “bind to pre-miR-21 strongly”. In addition, in assay [4], the “decrease in mature miR-21 levels” value stood at 40% and the pre-miR-21 levels result is “reduction in pre-miR-21 levels”.
